{"source": "the supplement of paper PMC10307832", "assay_in_all_cases": "relative viability (nuclei count vs DMSO), 5 days (fraction); higher = more cells survive", "key": {"Bortezomib + Trametinib": {"compound": "CC(C)C[C@H](NC(=O)[C@H](Cc1ccccc1)NC(=O)c1cnccn1)B(O)O [Bortezomib] + CC(=O)Nc1cccc(-n2c(=O)n(C3CC3)c(=O)c3c(Nc4ccc(I)cc4F)n(C)c(=O)c(C)c32)c1 [Trametinib] (partner 0.02 µM)", "in_short": "(§1)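 Nuclei were stained with Hoechst during a one-step fixation (final 0.05% Triton X-100, 1% formaldehyde, 1 ug/ml Hoechst) carried out 5 days after dosing, then counted on 4× images. The cells, lung cancer lines in 1536-well plates, had been dosed by pin tool the day after seeding with one drug alone or a fixed anchor-drug dose plus five library-drug doses (not always all listed) in √10 steps. Relative viability is the nuclei count in treated wells divided by that in vehicle wells, and each value is the median of duplicate plates.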"}, "[1]": {"compound": "CC1=CC(=NN1)NC2=CC(=NC(=N2)/C=C/C3=CC=CC=C3)N4CCN(CC4)C + CS(=O)(=O)CCNCc1ccc(-c2ccc3ncnc(Nc4ccc(OCc5cccc(F)c5)c(Cl)c4)c3c2)o1 [Lapatinib] (partner 2 µM)", "in_short": "as §1"}, "[2]": {"compound": "CC1=CC(=NN1)NC2=CC(=NC(=N2)/C=C/C3=CC=CC=C3)N4CCN(CC4)C + C[C@@H](Oc1cc(-c2cnn(C3CCNCC3)c2)cnc1N)c1c(Cl)ccc(F)c1Cl [Crizotinib] (partner 1 µM)", "in_short": "as §1"}, "Bortezomib + Crizotinib": {"compound": "CC(C)C[C@H](NC(=O)[C@H](Cc1ccccc1)NC(=O)c1cnccn1)B(O)O [Bortezomib] + C[C@@H](Oc1cc(-c2cnn(C3CCNCC3)c2)cnc1N)c1c(Cl)ccc(F)c1Cl [Crizotinib] (partner 1 µM)", "in_short": "as §1"}}, "data": [{"cell line": "NCI-H650", "values": [{"measurement": "relative viability", "setting": "Bortezomib + Trametinib; first compound 0.0002 µM", "result": 0.936}, {"measurement": "relative viability", "setting": "Bortezomib + Trametinib; first compound 0.000632 µM", "result": 1.1}, {"measurement": "relative viability", "setting": "Bortezomib + Trametinib; first compound 0.002 µM", "result": 0.857}, {"measurement": "relative viability", "setting": "Bortezomib + Trametinib; first compound 0.006325 µM", "result": 0.361}, {"measurement": "relative viability", "setting": "Bortezomib + Trametinib; first compound 0.02 µM", "result": 0.146}, {"measurement": "relative viability", "setting": "[1]; first compound 0.08 µM", "result": 0.804}, {"measurement": "relative viability", "setting": "[1]; first compound 0.253 µM", "result": 1.15}, {"measurement": "relative viability", "setting": "[1]; first compound 0.8 µM", "result": 0.839}, {"measurement": "relative viability", "setting": "[1]; first compound 2.53 µM", "result": 0.378}, {"measurement": "relative viability", "setting": "[1]; first compound 8 µM", "result": 0.271}, {"measurement": "relative viability", "setting": "[2]; first compound 0.08 µM", "result": 0.916}, {"measurement": "relative viability", "setting": "[2]; first compound 0.253 µM", "result": 0.739}, {"measurement": "relative viability", "setting": "[2]; first compound 0.8 µM", "result": 0.515}, {"measurement": "relative viability", "setting": "[2]; first compound 2.53 µM", "result": 0.358}, {"measurement": "relative viability", "setting": "[2]; first compound 8 µM", "result": 0.188}, {"measurement": "relative viability", "setting": "Bortezomib + Crizotinib; first compound 0.000632 µM", "result": 0.753}, {"measurement": "relative viability", "setting": "Bortezomib + Crizotinib; first compound 0.002 µM", "result": 0.584}, {"measurement": "relative viability", "setting": "Bortezomib + Crizotinib; first compound 0.006325 µM", "result": 0.25}, {"measurement": "relative viability", "setting": "Bortezomib + Crizotinib; first compound 0.02 µM", "result": 0.177}]}]}
